Source: patent US11554091B2, “Composition for enhancing skin elasticity or improving skin wrinkles comprising heptahydroxyflavan as an effective ingredient” (AMOREPACIFIC CORPORATION, priority 2019, dated 2023)

Tested on: MMP-1
Test: MMP-1 expression level by MMP-1 ELISA kit, UV-stimulated HaCaT cell culture and human fibroblast culture
Type: cell-based
Conditions: for MMP-1 production: Control = 100, UV = 260.4; for effect of inhibiting MMP-1 as compared to catechin or epicatechin: Table 1 and FIG. 3
Experimental: Then, after replacing the medium with an FBS-free DMEM medium to starve the cells, they were treated with UV on the next day.
Then, the cells were starved by replacing the medium with an FBM medium with no supplement. Then, the UV-stimulated HaCaT cell culture and the human fibroblast culture were treated with a total of 6 samples prepared by dissolving the (2R,3S)-heptahydroxyflavan and (2R,3R)-heptahydroxyflavan obtained in Example 1 in 5% DMSO to concentrations of 5 μg/mL (=about 15.5 μM), 10 μg/mL (=about 31.0 μM) and 20 μg/mL (=about 62.1 μM), respectively. As comparative examples, the cultures were treated with a total of 6 samples prepared by dissolving catechin and epicatechin in 5% DMSO at concentrations of 25 μM, 50 μM and 100 μM, respectively.
After the treatment with the samples, the expression level of MMP-1 was measured using the MMP-1 ELISA kit (R&D Systems). Separately from this, positive control groups were treated with 10 μM EGCG or 10 μM retinoic acid instead of heptahydroxyflavan in the same manner as described above.

## Oc1ccc([C@H]2Oc3c(O)c(O)c(O)c(O)c3C[C@@H]2O)cc1O [APNP-054]
5 μg/mL
  MMP-1 production: 282.1
10 μg/mL
  MMP-1 production: 267.7
20 μg/mL
  MMP-1 production: 183.2
  effect of inhibiting MMP-1 as compared to catechin or epicatechin: remarkably superior effect of inhibiting MMP-1

## Oc1ccc([C@H]2Oc3c(O)c(O)c(O)c(O)c3C[C@H]2O)cc1O [APNP-055]
5 μg/mL
  MMP-1 production: 281.0
10 μg/mL
  MMP-1 production: 286.6
20 μg/mL
  MMP-1 production: 160.6
  effect of inhibiting MMP-1 as compared to catechin or epicatechin: remarkably superior effect of inhibiting MMP-1

## O=C(O[C@@H]1Cc2c(O)cc(O)cc2O[C@@H]1c1cc(O)c(O)c(O)c1)c1cc(O)c(O)c(O)c1 [EGCG]
10 μM
  MMP-1 production: 115.4

## Oc1cc(O)c2c(c1)O[C@H](c1ccc(O)c(O)c1)[C@H](O)C2 [Epicatechin, epicatechin]
25 μM
  MMP-1 production: 294.8
50 μM
  MMP-1 production: 289.1
100 μM
  MMP-1 production: 196.2

## CC1=C(/C=C/C(C)=C/C=C/C(C)=C/C(=O)O)C(C)(C)CCC1 [RA, retinoic acid]
10 μM
  MMP-1 production: 104.5

## catechin
25 μM
  MMP-1 production: 308.2
50 μM
  MMP-1 production: 287.4
100 μM
  MMP-1 production: 257.3
